≈ marks a conversion by molar mass, not a printed value.
Key:
[1] = Solubility in culture medium; assay type: physicochemical; settings: culture medium (αMEM with 5% foetal bovine serum), plasma or biological fluid, thermodynamic from solid; culture medium (αMEM, 5% foetal bovine serum), pH 7.4; no unit in table, threshold is 2 mM
Procedure: Solubility is determined in laboratory culture medium (alpha minimal essential medium (αMEM) with 5% foetal bovine serum) saturated with 5% carbon dioxide at pH 7.4, by addition of excess compound and sonication at ambient temperature for 15 minutes. Alternatively the compound is diluted from a concentrated stock solution in DMSO into culture medium to give a final DMSO concentration <1%. The mixture is centrifuged at 13,000 rpm for 6 minutes and the concentration of drug in the supernatant solution is then determined by HPLC using a standard reference solution in a suitable solvent.

[2] = system: hypoxic cells in HT29 tumours; experiment: HT29 excision assay (drug after 20 Gy radiation, clonogenic survival); assay type: in vivo, human; settings: for HT29 log kill: log10 kill of hypoxic cells in HT29 tumours, additional to radiation alone, MTD or 75% of MTD, Table 2
Excerpt: In order to test the validity of this PK/PD model as a tool for predicting the antitumour activity of TPZ analogues, the inventors determined the key PK/PD parameters for 13 TPZ analogues, and TPZ itself, for the HT29 human colon carcinoma cell line. These parameters were then used to calculate the expected killing in hypoxic regions of HT29 tumours following a single intraperitoneal dose of the compounds at their maximum tolerated dose. The results of this calculation were then compared with measured killing of hypoxic cells in HT29 tumours, determined by administering the compounds immediately (within 5 min) after gamma irradiation (cobalt 60, 20 Gy) to sterilise oxygenated cells in the tumours. Tumours were removed 18 hours later and the number of surviving cells determined by clonogenic assay. The measured PK/PD parameters, model prediction (using the above 3D microvascular network), and experimentally determined hypoxic cell kill is shown in Table 1, and the relationship between predicted and measured cell kill in FIG. 4. The prediction is statistically highly significant (p=0.001, Fisher exact test). […] If the extravascular transport component was excluded from the model, the R^2 for this regression was only 0.28 and the relationship was not statistically significant.
Animals were treated with radiation alone (RAD, 20 Gy whole body); RAD+TPZ (316 μmol/kg); compound 3 (562 μmol/kg); RAD+compound 3 (562 μmol/kg). Tumours were excised 18 hr after treatment and clonogenic survival determined by staining colonies 14 days later. Each symbol represents a separate tumour. p<0.01 (one way ANOVA with Dunnett's test) for RAD+compound 3 and for RAD+TPZ versus RAD only. Horizontal lines are the historical means for untreated controls (upper line) and 20 Gy radiation only (lower line).
Compounds were evaluated with single dose radiation using s.c. HT29 tumors (average of two largest diameters 7-10 mm) grown by inoculating 10^7 cells (obtained by enzymatic dissociation of multicellular spheroids). Drugs were administered as single i.p. doses at their MTD with the following groups in each experiment. A: vehicle control, B: test drug, C: Radiation (20 Gy, cobalt-60, whole body irradiation), D: TPZ (316 μmol/kg) 5 min after radiation, E: Test drug 5 min after radiation. Each group included 3 (A, B) or 5 (C-E) mice. Tumors were excised 18 hr after treatment and plated to determine clonogenicity. Hypoxic cytotoxicity is determined by the difference in surviving fraction between groups C and E, while comparison of A and B evaluates oxic cell killing. Total yield of clonogens was used as the key parameter if cell yields were affected by treatment. Results of this assay are illustrated for compound 3 (and TPZ) in FIG. 5.

Row | Compound | solubility [1] [mM] | HT29 log kill [2] | activity against hypoxic cells in HT29 tumours ([2]; relative to radiation alone)
1 | Cc1ccc2c(c1)[n+]([O-])c(N)n[n+]2[O-] [B, 6-Methyl-1,2,4-benzotriazin-3-amine 1,4-Dioxide] | 3.02 (≈ 580 µg/mL) | 2.165 | –
2 | CCc1n[n+]([O-])c2ccccc2[n+]1[O-] [I] | 14.5 (≈ 2770 µg/mL) | 0.886 | –
3 | Cc1ccc2c(c1)[n+]([O-])c(NCCN(C)C)n[n+]2[O-] [H, N^1,N^1-Dimethyl-N^2-(6-methyl-1,4-dioxido-1,2,4-benzotriazin-3-yl)-1,2-ethanediamine] | 52 (≈ 13700 µg/mL) | 1.001 | significant activity
4 | Nc1n[n+]([O-])c2ccccc2[n+]1[O-] [A, tirapazamine, reference compound] | 8.9 (≈ 1590 µg/mL) | 1.17 | –
5 | Nc1n[n+]([O-])c2c(Cl)cccc2[n+]1[O-] [D, 8-Chloro-1,2,4-benzotriazin-3-amine 1,4-Dioxide] | 2.22 (≈ 472 µg/mL) | −0.154 | –
6 | COCCc1n[n+]([O-])c2ccccc2[n+]1[O-] [J] | 21 (≈ 4650 µg/mL) | 0.8 | –
7 | CN(CCCNC(=O)c1cccc2ccc(-c3ccncc3)nc12)CCCNc1n[n+]([O-])c2ccccc2[n+]1[O-] [M] | 3.8 (≈ 2050 µg/mL) | 0.138 | –
8 | CN(CCCNC(=O)c1cccc2cc3ccccc3nc12)CCCNc1n[n+]([O-])c2ccccc2[n+]1[O-] [L] | 0.45 (≈ 230 µg/mL) | −0.051 | –
9 | Cc1ccc2c(c1)[n+]([O-])nc(NCCN(C)C)[n+]2[O-] [F, 7-Methyl-N-[2-(dimethylamino)ethyl]-1,2,4-benzotriazin-3-amine 1,4-Dioxide] | 38.7 (≈ 10200 µg/mL) | 0.196 | –
10 | Cc1ccc2c(c1)[n+]([O-])c(NCCCN(C)CCCNC(=O)c1cccc3cc4ccccc4nc13)n[n+]2[O-] [N] | 32.4 (≈ 17000 µg/mL) | 0.027 | –
11 | CS(=O)(=O)c1ccc2c(c1)[n+]([O-])nc(N)[n+]2[O-] [E, 7-(Methylsulfonyl)-1,2,4-benzotriazin-3-amine 1,4-Dioxide] | 0.49 (≈ 126 µg/mL) | −0.028 | –
12 | Nc1n[n+]([O-])c2cc(Cl)ccc2[n+]1[O-] [C, 7-Chloro-1,2,4-benzotriazin-3-amine 1,4-Dioxide] | 0.09 (≈ 19.1 µg/mL) | −0.007 | –
13 | CCCN(CCC)CCNc1n[n+]([O-])c2ccccc2[n+]1[O-] [G] | 26 (≈ 7940 µg/mL) | 0.248 | –
14 | [O-][n+]1nc(NCCCCCCNc2c3ccccc3nc3ccccc23)[n+]([O-])c2ccccc21 [K] | 0.024 (≈ 10.9 µg/mL) | 0.009 | –

— US7816521B2, “1,2,4-benzotriazine-1,4-dioxides” (Auckland Uniservices Limited, priority 2004, dated 2010)
